Reference: ChEMBL document CHEMBL1129023, “Nucleosides and nucleotides. 150. Enzymatic synthesis of 5-phosphatidyl derivatives of (CNDAC) and their notable antitumor effects in mice1” (1996)

What was measured:
Type in all cases: functional
Mus musculus [1] = experiment: Compound was evaluated for the tumor growth inhibition on day 21 against M5076 sarcoma implanted sc in mice at a dose of 100 mg/kg/day.; conditions: 504 h, route subcutaneous, read-out: TGI
Mus musculus [2] = experiment: Compound was evaluated for the percent increase in life span against M5076 sarcoma in mice at a sc dose of 300 mg/kg/day.; conditions: route subcutaneous
Mus musculus [3] = experiment: Compound was evaluated for the body weight change from day 1 to day 12 against M5076 sarcoma in mice at a sc dose of 100 mg/kg/day.; conditions: route subcutaneous
Mus musculus [4] = experiment: Compound was evaluated for the percent increase in life span against M5076 sarcoma in mice at a sc dose of 200 mg/kg/day.; conditions: route subcutaneous
Mus musculus [5] = experiment: Compound was evaluated for the body weight change from day 1 to day 12 against M5076 sarcoma in mice at a sc dose of 200 mg/kg/day.; conditions: route subcutaneous
Mus musculus [6] = experiment: Compound was evaluated for the percent increase in life span against M5076 sarcoma in mice at a sc dose of 100 mg/kg/day.; conditions: route subcutaneous
Mus musculus [7] = experiment: Compound was evaluated for the body weight change from day 1 to day 12 against M5076 sarcoma in mice at a sc dose of 300 mg/kg/day.; conditions: route subcutaneous
Mus musculus [8] = experiment: Compound was evaluated for the body weight change from day 1 to day 12 against M5076 sarcoma in mice at a sc dose of 300 mg/kg/day: toxic; conditions: route subcutaneous
Mus musculus [9] = experiment: Compound was evaluated for the tumor growth inhibition on day 21 against M5076 sarcoma implanted sc in mice at a dose of 200 mg/kg/day.; conditions: 504 h, route subcutaneous, read-out: TGI
Mus musculus [10] = experiment: Compound was evaluated for the tumor growth inhibition on day 21 against M5076 sarcoma implanted sc in mice at a dose of 300 mg/kg/day.; conditions: 504 h, route subcutaneous, read-out: TGI
Mus musculus [11] = experiment: Compound was evaluated for the percent increase in life span against M5076 sarcoma in mice at a sc dose of 25 mg/kg/day.; conditions: route subcutaneous
Mus musculus [12] = experiment: Compound was evaluated for the body weight change from day 1 to day 12 against M5076 sarcoma in mice at a sc dose of 25 mg/kg/day.; conditions: route subcutaneous
Mus musculus [13] = experiment: Compound was evaluated for the tumor growth inhibition on day 21 against M5076 sarcoma implanted sc in mice at a dose of 25 mg/kg/day.; conditions: 504 h, route subcutaneous, read-out: TGI
Mus musculus [14] = experiment: Compound was evaluated for the percent increase in life span against M5076 sarcoma in mice at a sc dose of 50 mg/kg/day.; conditions: route subcutaneous
Mus musculus [15] = experiment: Compound was evaluated for the body weight change from day 1 to day 12 against M5076 sarcoma in mice at a sc dose of 50 mg/kg/day.; conditions: route subcutaneous
Mus musculus [16] = experiment: Compound was evaluated for the tumor growth inhibition on day 21 against M5076 sarcoma implanted sc in mice at a dose of 50 mg/kg/day.; conditions: 504 h, route subcutaneous, read-out: TGI

Row | Compound | inhibition in vivo at 100 mg/kg/day (Mus musculus [1]) [%] | ILS at 300 mg/kg/day (Mus musculus [2]) [%] | Weight change (Mus musculus [3]) [g] | ILS at 200 mg/kg/day (Mus musculus [4]) [%] | Weight change (Mus musculus [5]) [g] | ILS at 100 mg/kg/day (Mus musculus [6]) [%] | Weight change (Mus musculus [7]) [g] | Weight change (Mus musculus [8]) [g] | inhibition in vivo at 200 mg/kg/day (Mus musculus [9]) [%] | inhibition in vivo at 300 mg/kg/day (Mus musculus [10]) [%] | ILS at 25 mg/kg/day (Mus musculus [11]) [%] | Weight change (Mus musculus [12]) [g] | inhibition in vivo at 25 mg/kg/day (Mus musculus [13]) [%] | ILS at 50 mg/kg/day (Mus musculus [14]) [%] | Weight change (Mus musculus [15]) [g] | inhibition in vivo at 50 mg/kg/day (Mus musculus [16]) [%]
1 | CCCCC/C=C\C/C=C\CCCCCCCC(=O)OCC(COP(=O)([O-])OC[C@H]1O[C@@H](n2ccc(N)nc2=O)[C@@H](C#N)[C@@H]1O)OC(=O)CCCCCCC/C=C\C/C=C\CCCCC.[Na+] (stereo not given in full) | 93 | 15 | -0.3 | 10 | 1 | 15 | 1 |  |  |  |  |  |  |  |  | 
2 | CCCCCCCCCCCCCC(=O)OCC(COP(=O)([O-])OC[C@H]1O[C@@H](n2ccc(N)nc2=O)[C@@H](C#N)[C@@H]1O)OC(=O)CCCCCCCCCCCCC.[Na+] (stereo not given in full) | 80 | 0 | 0.8 | 22 | 0.3 | 4 |  | 1 | 97 |  |  |  |  |  |  | 
3 | CCCCCCCCCCCCCCCCCC(=O)OCC(COP(=O)([O-])OC[C@H]1O[C@@H](n2ccc(N)nc2=O)[C@@H](C#N)[C@@H]1O)OC(=O)CCCCCCCCCCCCCCCCC.[Na+] (stereo not given in full) | 88 | 60 | 1.2 | 49 | -0.2 | 20 | -0.3 |  | 97 | 98 |  |  |  |  |  | 
4 | N#C[C@H]1[C@H](O)[C@@H](CO)O[C@H]1n1ccc(N)nc1=O [TAS-109] | 38 | 14 | 1.1 | -7 | 1.2 | -11 | 1 |  | 47 | 67 |  |  |  |  |  | 
5 | CCCCCCCCCCCCCCCC(=O)OCC(COP(=O)([O-])OC[C@H]1O[C@@H](n2ccc(N)nc2=O)[C@@H](C#N)[C@@H]1O)OC(=O)CCCCCCCCCCCCCCC.[Na+] (stereo not given in full) | 93 | 40 | 0.9 | 38 | 0 | 21 | 1 |  | 98 | 100 |  |  |  |  |  | 
6 | CCCCCCCC/C=C\CCCCCCCC(=O)OCC(COP(=O)([O-])OC[C@H]1O[C@@H](n2ccc(N)nc2=O)[C@@H](C#N)[C@@H]1O)OC(=O)CCCCCCC/C=C\CCCCCCCC.[Na+] (stereo not given in full) | 98 | -58 | 0.6 | -12 | 2 | 13 | 3 |  |  |  | -3 | 1.6 | 69 | 7 | 0.8 | 92
